We go through 1 molecule from paper PMC9951290, “Comprehensive Structure–Activity Relationship Studies of Cepafungin Enabled by Biocatalytic C–H Oxidations” (ACS Central Science, 2023).

One assay deals with T1, proteasome subunit β5 (Homo sapiens, UniProt P28074).
T1 construct: Following incubation of the compounds in cell culture for 6 h, cells were lysed; endogenous in cells; host or cells: RPMI 8226 (human multiple myeloma)
Nature of the assay: In situ β5 proteasome activity assay (Suc-LLVY-AMC) in RPMI 8226 cells. The conditions noted are these: RPMI 8226 cells. The assay is classed as cell-based. From the text:
A preliminary series of analogues, including the natural product glidobactin A (2), were synthesized by largely the same route (Scheme 2B, Figure 2).[36] Desoxycepafungin (38) was synthesized from Boc-Lys(Boc)-OH by peptide couplings/macrocyclization to assess the role of the macrocycle hydroxylation in 1 toward proteasome inhibition. The saturated cepafungin analogue 39 was designed to address the possible role of rigidity in the tail fragment induced by the diene seen in many natural cepafungins and glidobactins. An analogue bearing unsaturation at its macrocyclic lysine was envisioned to provide a head-to-head comparison between the cepafungin and syringolin macrocyclic core. […] Proteasome subunit β5 IC50 values were determined in situ in RPMI 8226 cells. In close agreement with prior measurement of β5 IC50 for natural 1 and 2 in purified yeast proteasome,[12] in our hands the additional branching methyl in 1 indeed leads to ca. 5-fold improved IC50 compared to 2 in RPMI 8226 cells. […] Likewise, saturation of the fatty acid fragment in 39 causes ca. 14-fold decrease in β5 inhibition. This preliminary series of analogues highlighted that the macrocyclic hydroxylation, fatty acid unsaturation, and terminal lipid functionality are critical for potent proteasome inhibitory activity.
Cellular assays were performed on human multiple myeloma RPMI 8226 cells (Figure 4). First, relative inhibition of proteasome subunits β5 and β2 for all analogues and the natural product was measured at 30 nM compound concentration. Following incubation of the compounds in cell culture for 6 h, cells were lysed, and fluorogenic subunit-specific peptide substrates Suc-LLVY-AMC (β5) or Ac-RLR-AMC (β2) were incubated with the lysates; fluorescence readings provided relative proteasome activity levels in comparison with DMSO (Figure 4A). Next, cytotoxicity screening was performed at 30 and 100 nM concentrations for sufficient coverage of dynamic range (Figure 4B). […] Therefore, the improved cytotoxicity of phenyl cepafungin 50 likely results from a more pronounced loss of β5 function in RPMI 8226 cells. This drastic increase in proteasome inhibition may be due to π-stacking of the lipid tail phenyl ring with the β6 subunit residues Tyr106 and/or Tyr5. The β2 subunit-bound natural product has residues Tyr102 and Phe103 on the adjacent β3 subunit oriented further away from the terminal lipid methyl groups, and presumably would not facilitate π-stacking to the extent possible at the adjacent β6 subunit (see Figure 3 and Figure S4). […] These combined modifications were made in hopes that the effects of both substitutions would be additive. […] The presence of a Thr residue next to the cepafungin macrocycle appears to be favored over the ethyl side chain of desoxy-Thr analogue 44 as indicated by cytotoxicity and hydrogen-bonding seen in the cepafungin-bound crystal structure (Figures 3 and 4B). […]
Mammalian cell culture and lysate preparation
Mammalian cells were maintained in RPMI-1640 media. All media were supplemented with 10% fetal bovine serum (FBS, Life Technologies Cat# 10437028), non-essential amino acids (Sigma-Aldrich Cat# M7145) and penicillin/streptomycin (Sigma-Aldrich Cat# P4333). Cells were grown at 37 °C under 5% CO2 atmosphere. […] Cells were lysed by needle sonication to obtain cell lysates and protein concentration was determined using the […]
fluorescence was read at A360ex/A460em. […]

The subject of another assay is β5-subunit. As to conditions: purified yeast proteasome; cited from earlier work.

The term IC50 denotes the point on the concentration scale where inhibition reaches its midpoint. For `CC(C)CCCCCC=CC=CC(=O)NC(C(=O)NC1CC(O)CCNC(=O)C=CC(C)NC1=O)C(C)O` (stereo not shown) [compound 1, cepafungin I], on proteasome subunit β5, the “fold improved β5 IC50 of 1 compared to 2” value is “ca. 5 fold” and the “fold improved β5 inhibition of 1 compared to 38” value is reported as “ca. 11 fold”. On proteasome subunit β5 (6 h, Suc-LLVY-AMC, n = 3, Figure 4D), this molecule yielded an IC50 of 28 nM. The “fold improvement of β5-subunit inhibition compared to glidobactin A (2)” value in the assay with β5-subunit is given as “ca. 5 fold”.
